Data published in PMC2396520, “Antibody Complementarity-Determining Regions (CDRs) Can Display Differential Antimicrobial, Antiviral and Antitumor Activities” (PLoS ONE, 2008).
Where a SMILES comes first, the peptide text is derived from it.

How the values were obtained:
Candida albicans UP10 = assay type: cell-based; conditions: for Anti-Candida activity (%) at 100 µg/mL: C7/pc42 H2 alanine-substituted derivatives, 37°C, 6 h, CFU assay, triplicate; for EC50: UP10, 6 h; for EC50asd/EC50H2: anti-Candida EC50 of the derivative relative to C7/pc42 H2
Description: The alanine substituted derivatives (asd), defined according to the position held by the alanine-substituted aminoacid, were tested in the same biological assays to critically establish the functional relevance of each residue [5]. In vitro microbicidal activity of CDR peptides and selected asd against C. albicans UP 10 (clinical isolate from the fungi collection of the University of Parma) and C. albicans NCPF 3153 (National Collection of Pathogenic Fungi, Bristol, UK) were used for the in vitro experiments.
The microbicidal activity of synthetic CDRs against C. albicans strains was preliminarily evaluated by testing 100 µg/mL of each synthetic peptide by colony forming unit (CFU) assays as previously described [5]. Briefly, 10 µL of a distilled water suspension containing ∼5×10^4/mL germinating yeast cells were added to 90 µL of distilled water containing the synthetic peptide to be tested. Yeast suspensions were incubated at 37°C for 6 h. After incubation, the cell suspensions were plated on Sabouraud dextrose agar, incubated at 30°C and observed for CFU determination after 48–72 hours. Each assay was carried out in triplicate. […] EC50 was calculated by nonlinear regression analysis using Graph Pad Prism 4.01 software, San Diego, CA, USA.

[1] = test system: B16F10-Nex2 murine melanoma cells; assay type: cell-based; conditions: for EC50: 12 h
Description: Each peptide was tested in triplicate. After 12 h, the cytotoxic activities of the peptides were determined by measuring cell viability by Trypan Blue exclusion.

Compound	EC50 (Candida albicans UP10)	EC50asd/EC50H2 (Candida albicans UP10)	EC50 [1]	Anti-Candida activity (%) at 100 µg/mL (Candida albicans UP10)	apoptotic activity in melanoma cells ([1]; data not shown)
CC[C@H](C)[C@H](NC(=O)[C@@H](N)Cc1ccc(O)cc1)C(=O)N[C@@H](CO)C(=O)N[C@@H](CS)C(=O)N[C@@H](Cc1ccc(O)cc1)C(=O)N[C@@H](CC(N)=O)C(=O)NCC(=O)N[C@@H](C)C(=O)N[C@H](C(=O)N[C@@H](CO)C(=O)N[C@@H](Cc1ccc(O)cc1)C(=O)N[C@@H](CC(N)=O)C(=O)N[C@@H](CCC(N)=O)C(=O)N[C@@H](C)C(=O)N[C@@H](Cc1ccccc1)C(=O)N[C@@H](CCCCN)C(=O)O)[C@@H](C)O [K14A] (H-YISCYNGATSYNQAFK-OH; N-terminus and C-terminus assumed)	18.5 µM	4.41	384 µM	91.72%	
N=C(N)NCCC[C@H](NC(=O)[C@H](CO)NC(=O)[C@H](CCCNC(=N)N)NC(=O)[C@@H]1CCCN1C(=O)[C@H](Cc1ccc(O)cc1)NC(=O)[C@H](CO)NC(=O)[C@H](Cc1ccc(O)cc1)NC(=O)[C@H](CC(=O)O)NC(=O)[C@@H](N)CC(N)=O)C(=O)O [C7 L3] (H-NDYSYPRSR-OH)	20.2 µM				
CC[C@H](C)[C@H](NC(=O)[C@@H](N)Cc1ccc(O)cc1)C(=O)N[C@@H](CO)C(=O)N[C@@H](CS)C(=O)N[C@@H](C)C(=O)N[C@@H](CC(N)=O)C(=O)NCC(=O)N[C@@H](C)C(=O)N[C@H](C(=O)N[C@@H](CO)C(=O)N[C@@H](Cc1ccc(O)cc1)C(=O)N[C@@H](CC(N)=O)C(=O)N[C@@H](CCC(N)=O)C(=O)N[C@@H](CCCCN)C(=O)N[C@@H](Cc1ccccc1)C(=O)N[C@@H](CCCCN)C(=O)O)[C@@H](C)O [Y5A] (H-YISCANGATSYNQKFK-OH; N-terminus and C-terminus assumed)	28.5 µM	6.81	73.5 µM	98.10%	
CC[C@H](C)[C@H](NC(=O)[C@@H](N)Cc1ccc(O)cc1)C(=O)N[C@@H](CO)C(=O)N[C@@H](CS)C(=O)N[C@@H](Cc1ccc(O)cc1)C(=O)N[C@@H](CC(N)=O)C(=O)NCC(=O)N[C@@H](C)C(=O)N[C@H](C(=O)N[C@@H](CO)C(=O)N[C@@H](C)C(=O)N[C@@H](CC(N)=O)C(=O)N[C@@H](CCC(N)=O)C(=O)N[C@@H](CCCCN)C(=O)N[C@@H](Cc1ccccc1)C(=O)N[C@@H](CCCCN)C(=O)O)[C@@H](C)O [Y11A] (H-YISCYNGATSANQKFK-OH; N-terminus and C-terminus assumed)	47.6 µM	11.35	113 µM	55.70%	
CC[C@H](C)[C@H](NC(=O)[C@@H](N)Cc1ccc(O)cc1)C(=O)N[C@@H](CO)C(=O)N[C@@H](CS)C(=O)N[C@@H](Cc1ccc(O)cc1)C(=O)N[C@@H](CC(N)=O)C(=O)NCC(=O)N[C@@H](C)C(=O)N[C@H](C(=O)N[C@@H](CO)C(=O)N[C@@H](Cc1ccc(O)cc1)C(=O)N[C@@H](CC(N)=O)C(=O)N[C@@H](CCC(N)=O)C(=O)N[C@@H](CCCCN)C(=O)N[C@@H](Cc1ccccc1)C(=O)N[C@@H](C)C(=O)O)[C@@H](C)O [K16A] (H-YISCYNGATSYNQKFA-OH; N-terminus and C-terminus assumed)	161 µM	38.35	87 µM	0%	
CC[C@H](C)[C@H](NC(=O)[C@@H](N)Cc1ccc(O)cc1)C(=O)N[C@@H](CO)C(=O)N[C@@H](CS)C(=O)N[C@@H](Cc1ccc(O)cc1)C(=O)N[C@@H](CC(N)=O)C(=O)NCC(=O)N[C@@H](C)C(=O)N[C@H](C(=O)N[C@@H](CO)C(=O)N[C@@H](Cc1ccc(O)cc1)C(=O)N[C@@H](C)C(=O)N[C@@H](CCC(N)=O)C(=O)N[C@@H](CCCCN)C(=O)N[C@@H](Cc1ccccc1)C(=O)N[C@@H](CCCCN)C(=O)O)[C@@H](C)O [N12A] (H-YISCYNGATSYAQKFK-OH; N-terminus and C-terminus assumed)	6.48 µM	1.55	125 µM	100.00%	
CC[C@H](C)[C@H](NC(=O)[C@@H](N)Cc1ccc(O)cc1)C(=O)N[C@@H](CO)C(=O)N[C@@H](CS)C(=O)N[C@@H](Cc1ccc(O)cc1)C(=O)N[C@@H](C)C(=O)NCC(=O)N[C@@H](C)C(=O)N[C@H](C(=O)N[C@@H](CO)C(=O)N[C@@H](Cc1ccc(O)cc1)C(=O)N[C@@H](CC(N)=O)C(=O)N[C@@H](CCC(N)=O)C(=O)N[C@@H](CCCCN)C(=O)N[C@@H](Cc1ccccc1)C(=O)N[C@@H](CCCCN)C(=O)O)[C@@H](C)O [N6A] (H-YISCYAGATSYNQKFK-OH; N-terminus and C-terminus assumed)	1.54 µM	0.37	76.9 µM	100.00%	
CC[C@H](C)[C@H](NC(=O)[C@@H](N)Cc1ccc(O)cc1)C(=O)N[C@@H](CO)C(=O)N[C@@H](CS)C(=O)N[C@@H](Cc1ccc(O)cc1)C(=O)N[C@@H](CC(N)=O)C(=O)NCC(=O)N[C@@H](C)C(=O)N[C@@H](C)C(=O)N[C@@H](CO)C(=O)N[C@@H](Cc1ccc(O)cc1)C(=O)N[C@@H](CC(N)=O)C(=O)N[C@@H](CCC(N)=O)C(=O)N[C@@H](CCCCN)C(=O)N[C@@H](Cc1ccccc1)C(=O)N[C@@H](CCCCN)C(=O)O [T9A] (H-YISCYNGAASYNQKFK-OH; N-terminus and C-terminus assumed)	3.8 µM	0.91	60.2 µM	100.00%	
SYNQKFK [C-terminal peptide of C7/pc42 H2]					not apoptotic by itself
CC[C@H](C)[C@H](NC(=O)[C@@H](N)Cc1ccc(O)cc1)C(=O)N[C@@H](CO)C(=O)N[C@@H](CS)C(=O)N[C@@H](Cc1ccc(O)cc1)C(=O)N[C@@H](CC(N)=O)C(=O)NCC(=O)N[C@@H](C)C(=O)N[C@H](C(=O)N[C@@H](C)C(=O)N[C@@H](Cc1ccc(O)cc1)C(=O)N[C@@H](CC(N)=O)C(=O)N[C@@H](CCC(N)=O)C(=O)N[C@@H](CCCCN)C(=O)N[C@@H](Cc1ccccc1)C(=O)N[C@@H](CCCCN)C(=O)O)[C@@H](C)O [S10A] (H-YISCYNGATAYNQKFK-OH; N-terminus and C-terminus assumed)	13.2 µM	3.16	119 µM	100.00%	

Further compounds by falling EC50 (Candida albicans UP10), results first:

EC50 (Candida albicans UP10)	EC50asd/EC50H2 (Candida albicans UP10)	EC50 [1]	Compound	Anti-Candida activity (%) at 100 µg/mL (Candida albicans UP10)	apoptotic activity in melanoma cells ([1]; data not shown)
15.2 µM			CC(C)C[C@H](NC(=O)[C@H](CC(C)C)NC(=O)[C@H](CO)NC(=O)[C@H](CCC(N)=O)NC(=O)[C@H](CO)NC(=O)[C@H](CO)NC(=O)[C@@H](N)CCCCN)C(=O)N[C@@H](CC(N)=O)C(=O)N[C@@H](CO)C(=O)NCC(=O)N[C@@H](CC(N)=O)C(=O)N[C@@H](CCC(N)=O)C(=O)N[C@@H](CCCCN)C(=O)N[C@@H](CC(N)=O)C(=O)N[C@@H](Cc1ccc(O)cc1)C(=O)N[C@@H](CC(C)C)C(=O)N[C@H](C(=O)O)[C@@H](C)O [C7 L1] (H-KSSQSLLNSGNQKNYLT-OH)		
12 µM			CC(C)C[C@H](NC(=O)[C@H](CC(N)=O)NC(=O)[C@H](CO)NC(=O)[C@@H](NC(=O)[C@@H](N)CC(C)C)C(C)C)C(=O)N[C@@H](CCC(=O)O)C(=O)N[C@@H](CO)C(=O)O [pc42 L2] (H-LVSNLES-OH)		
8.23 µM	1.96	67.5 µM	CC[C@H](C)[C@H](NC(=O)[C@@H](N)Cc1ccc(O)cc1)C(=O)N[C@@H](CO)C(=O)N[C@@H](C)C(=O)N[C@@H](Cc1ccc(O)cc1)C(=O)N[C@@H](CC(N)=O)C(=O)NCC(=O)N[C@@H](C)C(=O)N[C@H](C(=O)N[C@@H](CO)C(=O)N[C@@H](Cc1ccc(O)cc1)C(=O)N[C@@H](CC(N)=O)C(=O)N[C@@H](CCC(N)=O)C(=O)N[C@@H](CCCCN)C(=O)N[C@@H](Cc1ccccc1)C(=O)N[C@@H](CCCCN)C(=O)O)[C@@H](C)O [C4A] (H-YISAYNGATSYNQKFK-OH; N-terminus and C-terminus assumed)	94.51%	
6.25 µM	1.49	73.5 µM	C[C@H](NC(=O)CNC(=O)[C@H](CC(N)=O)NC(=O)[C@H](Cc1ccc(O)cc1)NC(=O)[C@H](CS)NC(=O)[C@H](CO)NC(=O)[C@H](C)NC(=O)[C@@H](N)Cc1ccc(O)cc1)C(=O)N[C@H](C(=O)N[C@@H](CO)C(=O)N[C@@H](Cc1ccc(O)cc1)C(=O)N[C@@H](CC(N)=O)C(=O)N[C@@H](CCC(N)=O)C(=O)N[C@@H](CCCCN)C(=O)N[C@@H](Cc1ccccc1)C(=O)N[C@@H](CCCCN)C(=O)O)[C@@H](C)O [I2A] (H-YASCYNGATSYNQKFK-OH; N-terminus and C-terminus assumed)	99.77%	
5.11 µM			N=C(N)NCCC[C@H](NC(=O)[C@H](CCC(N)=O)NC(=O)[C@@H](N)CCC(N)=O)C(=O)N[C@@H](CO)C(=O)N[C@@H](CC(N)=O)C(=O)N[C@@H](Cc1c[nH]c2ccccc12)C(=O)N1CCC[C@H]1C(=O)N[C@@H](CCCNC(=N)N)C(=O)N[C@@H](CO)C(=O)O [HuA L3] (H-QQRSNWPRS-OH)		
3.91 µM	0.93	128 µM	CC[C@H](C)[C@H](NC(=O)[C@@H](N)Cc1ccc(O)cc1)C(=O)N[C@@H](CO)C(=O)N[C@@H](CS)C(=O)N[C@@H](Cc1ccc(O)cc1)C(=O)N[C@@H](CC(N)=O)C(=O)NCC(=O)N[C@@H](C)C(=O)N[C@H](C(=O)N[C@@H](CO)C(=O)N[C@@H](Cc1ccc(O)cc1)C(=O)N[C@@H](CC(N)=O)C(=O)N[C@@H](C)C(=O)N[C@@H](CCCCN)C(=O)N[C@@H](Cc1ccccc1)C(=O)N[C@@H](CCCCN)C(=O)O)[C@@H](C)O [Q13A] (H-YISCYNGATSYNAKFK-OH; N-terminus and C-terminus assumed)	100.00%	
0.78 µM			CSCC[C@H](NC(=O)[C@H](Cc1ccc(O)cc1)NC(=O)[C@H](CO)NC(=O)[C@H](Cc1ccc(O)cc1)NC(=O)CNC(=O)[C@H](CO)NC(=O)[C@@H](NC(=O)[C@H](CO)NC(=O)[C@@H](NC(=O)[C@H](CO)NC(=O)[C@H](CCCCN)NC(=O)[C@H](CO)NC(=O)[C@H](C)NC(=O)[C@H](CCCNC(=N)N)NC(=O)[C@@H](N)Cc1ccc(O)cc1)C(C)C)[C@@H](C)O)C(=O)N[C@@H](Cc1c[nH]cn1)C(=O)O [pc42 L1] (H-YRASKSVSTSGYSYMH-OH)		
